Test results taken from patent US20240173380A1, “CONNEXIN 43 FOR USE IN THE TREATMENT OF A CANCER TYPE CHARACTERIZED BY THE ACTIVATION OF A MITOGEN-ACTIVATED PROTEIN KINASE” (FUNDACIÓN PROFESOR NOVOA SANTOS, priority 2020, published 2024).
Counter-ions that a name gives are not always drawn.

Columns and labels:
Type in all cases: cell-based, human
[1] = tested on: A375 melanoma cells (BRAF mutation); test: Cell proliferation and colony formation (xCELLigence, CCK-8, clonogenic assay)
Protocol: Dojindo's highly water-soluble tetrazolium salt (WST-8) is reduced by dehydrogenase activity in cells to give a yellow-color formazan dye, which is soluble in the tissue culture media. The amount of the formazan dye generated by dehydrogenases is directly proportional to the number of living cells. Equal number of cells (1000-2000 cells) were seeded per triplicate in 96-well plates and cultured in the different conditions. Medium was replaced by 100 μL of fresh medium and 10 μL of CCK-8 reagent was added per well. After an incubation for 1 to 4 h at 37° C., absorbance was measured at 450 nm in a NanoQuant microplate reader Infinite M200 (TECAN). Results were calculated as optical density (OD) 450 nm=OD of sample−OD of blank.
The E8 xCELLigence plates were prepared by addition of 100 μL of complete media to every well. After incubation at 37° C., plates were inserted into the xCELLigence station, and the base-line impedance was measured to ensure that all wells and connections were working. Following harvesting and counting, cells were diluted to the selected seeding density and 100 μl of cells in culture medium was added to each well. For the cell proliferation assays for each condition, 1×10^3-5×10^3 cells/well was seeded into 100 μL of media in the E-Plate L8 (Acea Biosciences). The attachment and proliferation of the cells were monitored every 30 min. Cell proliferation was monitored for 48-72 h. Cell Index at each time point is defined as (Rn−Rb)/15, where Rn is the cell-electrode impedance of the well when it contains cells and Rb is the background impedance of the well with the media alone. For the cell adhesion assays, for each condition, 1×10^3-5×10^3 cells/well was seeded into 100 μL of media in E-Plate L8 (Acea Biosciences). Cell proliferation was monitored for 1 h every 10 sec. The extend of cell adhesion and spreading was monitored every min for 1-3 h. Cell Index at each time point is defined as (Rn−Rb)/15, where Rn is the cell-electrode impedance of the well when it contains cells and Rb is the background impedance of the well with the media alone.
(§1) Colony formation assays were performed by seeding 5×10^3 to 5×10^4 cells per well onto 6-12 well plates and grown for 7-15 days. The culture medium was replaced every 48 h. The cells were washed with warm Saline Solution and fixed with cold 2% PFA for 15 min. Cells were washed with 1×PBS and stained with 0.1% of crystal violet (Sigma-Aldrich) for 15 min. After staining, the cells were washed with distilled water and dried at room temperature. The colonies were quantified by diluting crystal violet in 5% acetic acid and 100 μL of the solution was collected to measure the absorbance at 570 nm using a NanoQuant microplate reader Infinite M200 (TECAN).

[2] = tested on: cleaved caspase 3 in A375 cells; test: Cleaved caspase 3 western blot
Description: (§2) The insoluble fraction was resuspended in lysis buffer (membrane).

[3] = tested on: A375 melanoma cells; test: Apoptosis assay, PI/YO-PRO-1 double staining, flow cytometry
Protocol: Supernatants (died cells) were aspirated and attached cells were harvested. Supernatants and cells were mixed, counted and 1 million cells were resuspended in 1 mL in flow cytometry (FC) buffer. Membrane viability analysis was performed by double staining PI/YO-PRO-1. YO-PRO-1 (Invitrogen) was added to the cells (150 nM) and incubated 10 min in the dark at 4° C. PI (Invitrogen) was added (2 μg/mL) and incubated for 5 min in the dark at 4° C. After the incubation time (PI/YO-PRO) samples were analyzed in a FACs Scalibur acquiring 20,000 event per triplicate. The red fluorescence emitted by PI was detected at 610 nm and the green florescence emitted by YO-PRO was detected at 515 nm. Data was analyzed using the FCS Express 6 Flow software.

[4] = tested on: p53 and p16 in A375 cells; test: Western blot of senescence biomarkers p53 and p16; conditions: Cx43 cells vs cells transfected with empty vector
Description: as §2

[5] = tested on: MDA-MB-231 breast cancer cells (BRAF mutation); test: Colony formation assay; conditions: MDA-MB-231 transfected with Cx43 vector vs EV
Protocol: as §1

[6] = tested on: Sk-Mel-147 melanoma cells (NRAS mutation); test: Colony formation assay; conditions: Sk-Mel-147 transfected with Cx43 vector
Protocol: as §1

[7] = tested on: HT29 colorectal cancer cells (BRAF mutation); test: Colony formation assay; conditions: HT29 transfected with Cx43 vector vs EV
Protocol: as §1

[8] = tested on: A375 tumour cell line; test: Cellular senescence: SA-β-Gal staining and flow cytometry
Protocol: The detection of SA-β-Gal activity was measured using the Senescence Cells Histochemical Staining Kit (Sigma-Aldrich). Cells were rinsed with warm PBS and fixed for 7 min at RT with a fixation buffer composed by 2% paraformaldehyde and 0.2% glutaraldehyde. After three washed with PBS, cells were incubated for 6 h or O/N at 37° C. without CO2 in a staining solution containing X-gal. This lactose analogue can be cleaved by β-galactosidase producing a blue insoluble product. Finally, cells were washed with PBS and images were taken using a light microscope.
SA-β-Gal activity was analyzed with the fluorogenic β-Galactosidase substrate di-β-D-galactopyranoside (FDG, Thermo Fisher Scientific), which is hydrolyzed by the endogenous β-galactosidase to fluorescein (FITC). Cells were harvested and incubated in a staining medium (PBS, 4% FBS, 10 mM HEPES, pH 7.2) at 37° C. for 10 min. The β-Galactosidase assay was started by adding warm 2 mM FDG to the cell suspension and after incubating for 3 min at 37° C. in the dark. The reaction was stopped with the addiction of ice-cold staining medium to the cells, which were kept on ice protected from light. […] was used for fluorescein and acquiring 20,000 event per triplicate. Data was analyzed using the FCS Express 6 Flow software.

[9] = tested on: A375 cell line; test: Gap junction intercellular communication: scrape loading and dye transfer; conditions: A375 transfected with Cx43 vector vs empty vector (EV)
Protocol: Cells were seeded on 6 or 12 wells and cultured until 80-100% of confluence and rinsed twice with warm PBS. Lucifer Yellow CH dilithium salt (1 mg/mL) (LY: Cell Projects Ltd© Kent) in PBS was added to the cells and parallel cuts (3 cuts per well) were performed with a surgical blade (Swann-Mortonscalpel®). After 3-5 min at 37° C. cells were washed with PBS and fixed 2% PFA in PBS. LY becomes incorporated by cells along the cut and move from the dye-loaded cells into adjacent ones connected by functional gap junction channels. The areas for LY loading were randomly selected in the central part of wells to obtain the images for quantification. Images were captured with 10× objective using a Nikon Eclipse Ti fluorescent microscope. The constant exposures were used for all images for a given experiment. Ten images per sample were quantified. The score was calculated as the ratio of the number of non-damage LY positive cells at the edge and the number of the LY positive cells outside the edge.
Cells were seeded on 12-wells plated and cultured until 80-100% of confluence. […] The fluorescence emitted was measured at 640/40 nm and 540/40 nm with two photodetectors, the time course of the passage of dye from the injected cell to the adjacent cells was studied.

[10] = tested on: A375 cells resistant to BRAF/MEKi (DR); test: Apoptosis assay (PI/YO-PRO-1) in double resistant cells; conditions: DR A375 cells transfected with Cx43 vector
Protocol: The BRAF mutated tumour cell lines A375 (melanoma), SK-Mel-28 (melanoma), MDA-MB-231 (human breast cancer) and HT-29 (human colorectal adenocarcinoma) were also used to test the role of Cx43 in drug resistance. SK-Mel147 (melanoma), NRAS mutated cell line was selected to compare the results with BRAF mutant cell lines. Cells were cultured in Dulbecco's modified Eagle's medium (DMEM) (Lonza) supplemented with 10% fetal bovine serum (FBS) (Gibco, Thermo Fisher Scientific) and 100 U/mL penicillin and 100 μg/ml streptomycin (Gibco, Thermo Fisher Scientific). […] After adding DMEM supplemented with 10% FBS, cells were transferred to falcon tube and counted using the Neubauer chamber method in a light microscope. […]
Supernatants (died cells) were aspirated and attached cells were harvested. Supernatants and cells were mixed, counted and 1 million cells were resuspended in 1 mL in flow cytometry (FC) buffer. […] After the incubation time (PI/YO-PRO) samples were analyzed in a FACs Scalibur acquiring 20,000 event per triplicate. The red fluorescence emitted by PI was detected at 610 nm and the green florescence emitted by YO-PRO was detected at 515 nm. Data was analyzed using the FCS Express 6 Flow software.

Row | Compound | colony formation capacity ([1]; 100 μM CBX for 7 days, A375 EV and Cx43-overexpressing cells) | levels of cleaved caspase-3 ([2]; Cx43 overexpression in combination with BRAF/MEKi (1/100 nM T/D, 5 days)) | levels of cleaved caspase-3 ([2]; Cx43 overexpression with BRAF/MEKi (T/D 4 days) followed by 24 h 3.5 μM NAV) | apoptosis ([3]; A375-Cx43 under BRAF/MEKi treatment (100 nM dabra, 1 nM trame, 5 days)) | basal percentage of early apoptotic cells ([3]; Cx43 overexpressing A375 vs empty vector) | levels of senescent biomarkers p53 and p16 [4] | capacity to form colonies [5] | capacity to form colonies [6] | capacity to form colonies [7] | cellular senescence (flow cytometry, β-Gal staining) ([8]; A375-Cx43 vs A375-EV under 100 nM dabra and 1 nM trame for 5 days) | cellular senescence (ß-Galactosidase activity) ([8]; Cx43 re-expression by vector in A375, no drug) | cell proliferation and colony formation capacity ([1]; A375-Cx43 after 1-2 weeks and 4 months under 1 nM T/100 nM D) | cells detected ([1]; A375-Cx43 after 2 weeks under 1 nM T/100 nM D) | proliferation rate ([1]; A375 transfected with Cx43 vector vs empty vector, xCelligence, colony formation, CCK8) | capacity to form colonies ([1]; A375 with Cx43 vector plus different concentrations of dabrafenib and trametinib for 7 days) | dye coupling (GJIC) [9] | MFI ratio of apoptotic cells [10]
1 | CC1(C)[C@@H](OC(=O)CCC(=O)O)CC[C@]2(C)[C@H]3C(=O)C=C4[C@@H]5C[C@@](C)(C(=O)O)CC[C@]5(C)CC[C@@]4(C)[C@]3(C)CC[C@@H]12 [CBX, Carbenoloxolone disodium salt, reference compound] | No changes were detected in colony formation capacity |  |  |  |  |  |  |  |  |  |  |  |  |  |  |  | 
2 | Cx43: channel protein Connexin 43, restored in tumour cells with a pIRESpuro2 plasmid containing the human Cx43 sequence |  | showed the highest levels of cleavage caspase-3 | showed the highest levels of cleavage caspase-3 | increases cellular senescence and apoptosis | significantly higher | higher levels of the senescent biomarkers p53 and p16 than control cells | significantly decreases the capacity to form colonies | significantly decreases the capacity to form colonies | significantly decreases the capacity to form colonies | enhanced cellular senescence | increases cellular senescence | significantly less cell proliferation and colony formation capacity | Almost no cells were detected | significant reduction in the proliferation rate | significantly decreases the capacity to form colonies | increased levels of dye coupling compared with control EV | increases the MFI ratio of apoptotic cells
